Data reported in patent US9023767B2, “γ-Secretase substrates and methods of use” (Memorial Sloan-Kettering Cancer Center, priority 2009, dated 2015).
Where two headings read alike, the source gives them in different places.

What was measured:
[1] = test system: A20 mouse lymphoma cells; experiment: Lymphoma cell proliferation assay, [3H]thymidine incorporation; assay type: cell-based; settings: 48 hours
Description: For a lymphoma cell proliferation assay, A20 mouse lymphoma cells were seeded in a 96-well plate at a concentration of 5×10^5 cells/ml in 100 μl RPMI media containing 2% fetal bovine serum. An additional 100 μl of media containing DMSO or γ-secretase inhibitor was added and incubated for 48 hours at 37° C. After this incubation, the cells were incubated for 5 hours with 2 μCi/ml [^3H]thymidine at 37° C. Proliferative response was then evaluated by harvesting the tritiated DNA from cells using a Skatron cell harvester and proliferation assessed as a function of [^3H]thymidine incorporation measured on a β-counter.

[2] = target: γ-secretase (Homo sapiens (Human), UniProt P49768); experiment: Extended exo-cell γ-secretase assay, HeLa cells; assay type: cell-based
Description: The potency of two structurally different GSIs was assayed in four unique γ-secretase activity assays. IC50 values were determined from the dose response curves using a non-linear regression analysis in the Prism software. An in vitro assay was based on the one previously reported by Li et al. (2000), except we utilized Sb4 substrate that eliminated the need for biotinylated antibody. The cell-based activity assay used N2A mouse neuroblastoma cells stably over-expressing APP and a biotinylated 4G8 antibody that binds the C-terminus of the amyloid beta peptide. The exo-cell assay incubated HeLa cells simultaneously with GSI, Sb4 substrate as well as 0.25% CHAPSO detergent prior to detecting substrate cleavage. Finally, the extended exo-cell assay first incubated HeLa cells with GSI for 24 hrs. Subsequently, the cells were washed 1× in PBS and then incubated with Sb4 substrate and CHAPSO detergent. The assay was then carried out exactly as described for the original exo-cell method. All assays incorporate ruthenylated G2-10* antibody to detect 40-site cleavage of APP or recombinant Sb4 substrate and quantitated activity by measuring ECL. The latter assays were performed as previously described (Li et al., 2000). In the in vitro assay, recombinant Sb4 substrate was incubated for 2.5 hours at 37° C. in pH 7.0 PIPES buffer in the presence of 0.25% CHAPSO detergent and solubilized γ-secretase at a final concentration of 40 ng/ul. The detection of cleaved substrate was determined using ruthenylated G2-10* antibody. Since the Sb4 substrate is biotinylated additional 6E10 biotinylated antibody used in earlier assays is not required. […]
The exo-cell assay was adapted to monitor real-time γ-secretase activity and inhibition over extended times of pretreatment regimens. […] This modified, extended treatment exo-cell assay is capable of quantifying remaining γ-secretase activity following drug treatment on virtually any cell type. The IC50 values for Compound E and GSI-34 were calculated using the extended exo-cell assay (Table 3 and FIG. 15d). […]

[3] = target: γ-secretase (Homo sapiens (Human), UniProt P49768+Q92542); experiment: Photoaffinity labeling of γ-secretase in HeLa membrane by Aβ17-23BPA20-biotin; assay type: binding; settings: inhibitor at 2 μM
Description: FIG. 4. […] Various concentrations of inhibitor were incubated with APP substrate (S4) or Notch peptide substrate containing the C-terminal biotinylated transmembrane domain of Notch1 and HeLa cell membrane in the presence of 0.25% CHAPSO. Aβ40 was detected by G2-10 antibody. The cleaved Notch product was detected by Val1744 antibody that specifically recognizes the cleaved product between Gly1743 and Val1744. Activities are expressed as percentage relative to reading that was produced in DMSO control. […] Various concentrations of S4 substrate were incubated with HeLa membrane in fixed concentrations of inhibitor as indicated. The double reciprocal velocity (1/v) and substrate concentrations (1/S) are plotted to determine the type of inhibition. […] Assays were conducted as described in FIG. 4A. […] The labeled samples were solubilized with RIPA buffer. Biotinylated proteins were captured with streptavidin-agarose and probed by immunoblotting using antibodies against biotin, PS1-CTF, PS1-NTF, Nicastrin, PEN-2 and APH-1a. HeLa cell membrane proteins were directly loaded onto lanes indicated by an arrow in the PEN-2 and APH-1a blots as positive controls. […] Upper panel: PS1-NTF; Lower panel: PS1-CTF.
The labeled proteins were eluted with 2×SDS sample buffer and analyzed with Western blotting using antibodies against the components of γ-secretase complex. Protein concentration was determined with the Dc protein assay kit (Bio-Rad)
After the photolyzed membranes were solubilized, biotinylated proteins were captured, eluted and analyzed by western blotting with antibodies against biotin, PS1, nicastrin, PEN-2 and APH-1.

Which results are given for `CC(NC(=O)Cc1cc(F)cc(F)c1)C(=O)NC1N=C(c2ccccc2)c2ccccc2N(C)C1=O` (stereo not shown) [Compound E]?
inhibition of cellular proliferation [1]: able to inhibit cellular proliferation; IC50 ([2]; 24 hrs pretreatment, read-out: Extended Exo-Cell (nM), IC50): 2.8 nM; IC50 ([2]; Extended Exo-Cell (nM), IC50, 24 hrs pretreatment): 2.83 nM; block of photo-crosslinking of PS1-CTF and PS1-NTF by Aβ17-23BPA20-biotin [3]: completely blocked
